According to patent US11618746B2, “Inhibitors of APOL1 and methods of using same” (Vertex Pharmaceuticals Incorporated, priority 2018, dated 2023):

target: T1, APOL1 G1 Protein (Homo sapiens, UniProt O14791, I384M/S342G); experiment: Trypanosoma brucei brucei lysis assay using APOL1 recombinant protein (AlamarBlue viability readout); type: cell-based; settings: Trypanosoma brucei brucei (Lister 427 VSG 221 bloodstream form) lysis by 0.05 μg/mL recombinant APOL1 G1, 16 hrs
T1 sequence (O14791 28-398 S342G/I384M): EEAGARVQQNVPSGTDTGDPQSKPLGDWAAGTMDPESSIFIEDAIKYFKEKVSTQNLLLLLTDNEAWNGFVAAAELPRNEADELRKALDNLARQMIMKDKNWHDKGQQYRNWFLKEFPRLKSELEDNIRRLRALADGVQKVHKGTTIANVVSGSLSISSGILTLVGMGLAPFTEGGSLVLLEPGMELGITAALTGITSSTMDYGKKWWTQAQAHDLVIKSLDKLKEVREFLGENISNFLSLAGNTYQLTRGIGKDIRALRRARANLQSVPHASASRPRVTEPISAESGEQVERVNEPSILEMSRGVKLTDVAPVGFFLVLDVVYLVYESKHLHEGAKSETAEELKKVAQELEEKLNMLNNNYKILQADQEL
Description: Trypanosoma brucei brucei is a blood stream parasite to which human, gorillas and baboon are immune due to the presence of the APOL1 protein in their HDL particles. The protein is uptaken by the parasite via the TbHpHb receptor located in its flagellar pocket and is bonded by the Hpr protein contained in the HDL particles which triggers the receptor endocytosis by the parasite.
Following endocytosis, the formed vesicle containing the HDL particle matures from early to late endosome, and subsequently to lysosome. The concomitant pH change in the lumen of the vesicle triggers the insertion of the APOL1 protein into the membrane of the late endosome/lysosome and hereby triggers lysosomal membrane premeabilisation and as a further downstream event, trypanosome lysis. Trypanosoma brucei brucei is sensitive to lysis by all three APOL1 variants (G0, G1, and G2).
The Trypanosoma brucei brucei lysis assay is a lysis assay of the parasite using recombinant APOL1 protein variant followed by a fluorescent detection method of viability by the addition of AlamarBlue reagent to the assay well, a general metabolic redox indicator (AlamarBlue assay).
Briefly, the AlamarBlue active compound, the resazurin, a blue, water soluble, non-toxic and cell permeable molecule, which can be followed by absorbance, is reduced by various metabolic pathways into resorufin, a red compound which can be followed by either absorbance or fluorescence. The assay allows the calculation of the percent viability (percent of living Trypanosomes remaining in each well) at the end of a lysis relative to the untreated condition by interpolation of fluorescent values (FLU) on a standard curve with a known amount of seeded trypanosome/well.
Trypanosoma brucei brucei (ATCC, Cat. No. PRA-382) • Lister 427 VSG 221 bloodstream form.
Thaw/Expansion Media (ATCC Medium 2834 Modified HMI-9 Medium)
Equipment • E1-Clip Tip pipette 12 channel adjustable 2-125 μL, Cat. No. 4672070BT • ThermoFisher MultiDrop 384, Cat. No. 5840300 • Multidrop • Agilent Bravo, Cat. No. G5409A • Bravo • SpectraMax M5
Trypanosoma brucei brucei Culture
Step 2, Day 4 • Centrifuge at 800×g for 5 minutes at room temperature. • Resuspend in 1 mL media. • Make a 1:25 fold dilution (10 μL/240 μL media). • Count on a hemocytometer (after adding parasites). • Let sit for 1-2 minutes for the parasites to settle. • Count should be approximately 100 viable motile parasites/16 grid or approximately 25×10^6 parasites/flask. • Passage the parasites by adding 1×10^6 parasites/T75 flask in 20 mL media. • Passage the parasites by adding 2.33×10^6 parasites/T175 flask in 46.6 mL media. • For every T75 flask should make enough for approximately 1.5×384 well assay plates. • For every T175 flask should make enough for approximately 3.8×384 well assay plates.
Step 3. Day 6 • Centrifuge at 800×g for 5 minutes. • Resuspend in 3 mL assay media (No phenol red, no FBS) per 75 starting flask. • Resuspend in 7 mL assay media (No phenol red, no FBS) per 175 flask • Make a 1:25 fold dilution. • Count by hemocytometer. • Every T75 flask set up should have approximately 75×10^6 parasites/flask (verify doubling time=8.7 hrs 1 hr). • Every T175 flask set up should have approximately 175×10^6 parasites/flask (verify doubling time=8.7 hrs±1 hr). • Require 46×10^6 parasites per 384 well plate (at 120,000 parasites per well).
Step 2, Day 2 • Centrifuge at 800×g for 5 minutes at room temperature. • Resuspend in 1 mL media. • Make a 1:25 fold dilution (10 L/240 μL media). • Let sit for 1-2 minutes for the parasites to settle. • Count should be approximately 100 viable motile parasites/16 grid or approximately 8×10^6 parasites per flask. • Passage the parasites by adding 1.25×10^6 parasites per T75 flask in 20 mL media. • For every T75 flask set up should have approximately 1.5×384 well assay plates. • For every T175 flask setup should have approximately 3.8×384 well assay plates. […]

First: CC1C[C@H](NC(=O)CCc2c(-c3ccc(F)cc3)[nH]c3c(F)cc(F)cc23)C(=O)N1 (mixture of isomers) [Compound 6]
Second: O=C(CCc1c(-c2ccc(F)cc2)[nH]c2c(F)cc(F)cc12)N[C@H]1C[C@@H](CO)NC1=O [Compound 7]
The IC50 of the first is lower: 250 to 1000 nM for the first, over 1000 nM for the second. The first is the more potent here.

`CC1(NC(=O)CCc2c(-c3ccc(F)cc3)[nH]c3c(F)cc(F)cc23)CCNC1=O` (racemic) [Compound 14] and `O=C(CCc1c(-c2ccc(F)cc2)[nH]c2c(F)cc(F)cc12)N[C@H]1CCNC1=O` [Compound 3, 3-[5,7-difluoro-2-(4-fluorophenyl)-1H-indol-3-yl]-N-[(3S)-2-oxopyrrolidin-3-yl]propanamide] cannot be ordered by IC50: under 250 nM for the first, under 250 nM for the second.

`O=C1C[C@H](NC(=O)CCc2c(-c3ccc(F)cc3)[nH]c3c(F)cc(F)cc23)C(=O)N1` [Compound 5] and `O=C1C[C@@H](NC(=O)CCc2c(-c3ccc(F)cc3)[nH]c3c(F)cc(F)cc23)C(=O)N1` [Compound 16] fall in the same range of IC50: 250 to 1000 nM for the first, 250 to 1000 nM for the second.

First: O=C(CCc1c(-c2ccc(F)cc2)[nH]c2c(F)cc(F)cc12)N[C@H]1C[C@H](CO)NC1=O [Compound 8]
Second: O=C(CCc1c(-c2ccc(F)cc2)[nH]c2c(F)cc(F)cc12)N[C@@H]1CCNC1=O [Compound 13]
The IC50 of the first is higher: over 1000 nM for the first, under 250 nM for the second. The second is the more potent here.

Going from `N#Cc1ccc(-c2[nH]c3c(F)cc(F)cc3c2CCC(=O)N[C@H]2CCNC2=O)cc1` [Compound 20, 3-[2-(4-cyanophenyl)-5,7-difluoro-1H-indol-3-yl]-N-[(3S)-2-oxopyrrolidin-3-yl]propanamide] to `N#Cc1cc(F)c2[nH]c(-c3ccc(F)cc3)c(CCC(=O)N[C@H]3CCNC3=O)c2c1` [Compound 28], the IC50 rises from under 250 nM to over 1000 nM.

`O=C(CCc1c(-c2ccc(OC(F)F)cc2)[nH]c2c(F)cc(F)cc12)N[C@H]1CCNC1=O` [Compound 21] and `O=C(CCc1c(-c2ccc(F)cc2)[nH]c2c(F)cc(Br)cc12)N[C@H]1CCNC1=O` [Compound 27] cannot be ordered by IC50: under 250 nM for the first, under 250 nM for the second.

`O=C(CCc1c(-c2ccccc2)[nH]c2c(F)cc(F)cc12)N[C@@H]1C(=O)NC[C@H]1O` [Compound 26] and `O=C(CCc1c(-c2ccccc2)[nH]c2cc(F)cc(F)c12)N[C@@H]1C(=O)NC[C@H]1O` [Compound 85] cannot be ordered by IC50: under 250 nM for the first, under 250 nM for the second.

`Cc1cc(F)c2[nH]c(-c3ccc(F)cc3)c(CCC(=O)N[C@@H]3C(=O)NC[C@H]3O)c2c1` [Compound 29] and `O=C(CCc1c(-c2ccc(F)cc2)[nH]c2c(F)cc(Cl)cc12)N[C@@H]1C(=O)NC[C@H]1O` [Compound 30] cannot be ordered by IC50: under 250 nM for the first, under 250 nM for the second.

`O=C(CCc1c(-c2ccc(F)cc2)[nH]c2c(Cl)cc(F)cc12)N[C@@H]1C(=O)NC[C@H]1O` [Compound 36] and `Cc1cc(F)cc2c(CCC(=O)N[C@@H]3C(=O)NC[C@H]3O)c(-c3ccc(F)cc3)[nH]c12` [Compound 37] cannot be ordered by IC50: under 250 nM for the first, under 250 nM for the second.

`COc1cc(F)cc2c(CCC(=O)N[C@@H]3C(=O)NC[C@H]3O)c(-c3ccc(F)cc3)[nH]c12` [Compound 40] and `N#Cc1cc(F)cc2c(CCC(=O)N[C@@H]3C(=O)NC[C@H]3O)c(-c3ccc(F)cc3)[nH]c12` [Compound 42] cannot be ordered by IC50: under 250 nM for the first, under 250 nM for the second.

`Cc1ccc2[nH]c(-c3ccc(Br)cc3)c(CCC(=O)N[C@H]3CCNC3=O)c2c1` [Compound 43, 3-[2-(4-bromophenyl)-5-methyl-1H-indol-3-yl]-N-[(3S)-2-oxopyrrolidin-3-yl]propanamide] and `O=C(CCc1c(-c2ccc(F)cc2)[nH]c2ccc(F)cc12)N[C@H]1CCNC1=O` [Compound 47] cannot be ordered by IC50: under 250 nM for the first, under 250 nM for the second.

`O=C(CCc1c(-c2ccccc2)[nH]c2ccc(Cl)cc12)N[C@@H]1C(=O)NC[C@H]1O` [Compound 44, 3-(5-chloro-2-phenyl-1H-indol-3-yl)-N-[(3S,4R)-4-hydroxy-2-oxo-pyrrolidin-3-yl]propanamide] and `O=C(CCc1c(-c2ccccc2)[nH]c2ccc(F)cc12)N[C@@H]1C(=O)NC[C@H]1O` [Compound 51] cannot be ordered by IC50: under 250 nM for the first, under 250 nM for the second.

`O=C(CCc1c(-c2ccc(F)cc2)[nH]c2ccc(F)cc12)N[C@@H]1C(=O)NC[C@H]1O` [Compound 46] and `O=C(CCc1c(-c2ccc(F)cc2)[nH]c2c(F)cccc12)N[C@@H]1C(=O)NC[C@H]1O` [Compound 76] cannot be ordered by IC50: under 250 nM for the first, under 250 nM for the second.

Compared with `O=C(CCc1c(-c2ccc(F)cc2)[nH]c2ccc(F)cc12)NC1CCNC1=O` (centres unmarked) [Compound 48], `O=C(CCc1c(-c2ccc(F)cc2)[nH]c2ccc(F)cc12)N[C@@H]1CCNC1=O` [Compound 49] is higher in IC50: under 250 nM for the first, 250 to 1000 nM for the second. The first is the more potent here.

Compared with `CN(C(=O)CCc1c(-c2ccc(F)cc2)[nH]c2ccc(F)cc12)C1CCNC1=O` (centres unmarked) [Compound 50], `O=C(CCc1c(-c2ccc(F)cc2)[nH]c2ccc(O)cc12)N[C@H]1CCNC1=O` [Compound 55, 3-[2-(4-fluorophenyl)-5-hydroxy-1H-indol-3-yl]-N-[(3S)-2-oxopyrrolidin-3-yl]propanamide] is higher in IC50: 250 to 1000 nM for the first, over 1000 nM for the second. The first is the more potent here.

Compared with `O=C(CCc1c(-c2ccccc2)[nH]c2ccc(F)cc12)N[C@H]1CCNC1=O` [Compound 52], `O=C(CCc1c(-c2ccc(F)cc2)[nH]c2ccc(OCc3ccccc3)cc12)N[C@H]1CCNC1=O` [Compound 54, 3-[5-benzyloxy-2-(4-fluorophenyl)-1H-indol-3-yl]-N-[(3S)-2-oxopyrrolidin-3-yl]propanamide] is higher in IC50: under 250 nM for the first, 250 to 1000 nM for the second. The first is the more potent here.

`O=C(CCc1c(-c2ccc(F)cc2)[nH]c2c(F)c(F)ccc12)N[C@@H]1C(=O)NC[C@H]1O` [Compound 58] and `O=C(CCc1c(-c2ccccc2)[nH]c2c(F)c(F)ccc12)N[C@@H]1C(=O)NC[C@H]1O` [Compound 59] cannot be ordered by IC50: under 250 nM for the first, under 250 nM for the second.

`O=C(CCc1c(-c2ccccc2)[nH]c2c(F)cccc12)N[C@@H]1C(=O)NC[C@H]1O` [Compound 61] and `O=C(CCc1c(-c2ccccc2)[nH]c2c(Br)cccc12)N[C@@H]1C(=O)NC[C@H]1O` [Compound 70] cannot be ordered by IC50: under 250 nM for the first, under 250 nM for the second.

`O=C(CCc1c(-c2ccc(F)cc2)[nH]c2c(Cl)cccc12)N[C@H]1CCNC1=O` [Compound 72] and `O=C(CCc1c(-c2ccc(F)cc2)[nH]c2c(F)cccc12)N[C@H]1CCNC1=O` [Compound 75] cannot be ordered by IC50: under 250 nM for the first, under 250 nM for the second.

`O=C(CCc1c(-c2ccc(F)cc2)[nH]c2c(Cl)cccc12)N[C@@H]1C(=O)NC[C@H]1O` [Compound 73] and `O=C(CCc1c(-c2ccc(F)cc2)[nH]c2ccccc12)N[C@@H]1C(=O)NC[C@H]1O` [Compound 87, 3-[2-(4-fluorophenyl)-1H-indol-3-yl]-N-[(3S,4R)-4-hydroxy-2-oxo-pyrrolidin-3-yl]propanamide] cannot be ordered by IC50: under 250 nM for the first, under 250 nM for the second.

Compared with `O=C(CCc1c(-c2ccc(F)cc2)[nH]c2c(F)ccc(F)c12)N[C@H]1CCNC1=O` [Compound 78], `O=C(CCc1c(-c2ccccc2)[nH]c2c(F)c(F)c(F)cc12)N[C@@H]1C(=O)NC[C@H]1O` [Compound 80] is lower in IC50: over 1000 nM for the first, under 250 nM for the second.

`O=C(CCc1c(-c2ccccc2)[nH]c2cc(F)c(F)cc12)N[C@@H]1C(=O)NC[C@H]1O` [Compound 82] and `O=C(CCc1c(-c2ccccc2)[nH]c2ccccc12)N[C@@H]1C(=O)NC[C@H]1O` [Compound 86] cannot be ordered by IC50: under 250 nM for the first, under 250 nM for the second.
